Experimental data as given in patent publication US20110209228A1, “METHOD OF TREATMENT USING ANTIMICROBIAL COMPOSITION” (priority 2008, published 2011).

B1: 27: antimicrobial peptide produced by mutagenesis based on SEQ ID NO: 7 and/or 8 (peptide)
chain 1: MVLRGFLKRFGGKILRNRGRDGATLKDFLKMIATRIPH
chain 2: MVKRGFGKRLRRKATKLGMILRRH
modifications: Antimicrobial peptide F6; Antimicrobial peptide 27
B2: B6: peptide by mutagenesis based on a consensus sequence for antimicrobial C-terminal fragments of cathelicidin proteins (peptide)
chain: MVGIVSGEFRGSFEKCVGGIDKSLGILRLSWDLVLRGILRLSWDLVLRGSSRSAAGTIWEFEAF
modifications: Antimicrobial peptide B6

Legend:
E. coli TOP10 = assay: growth inhibition screen by expression of the peptide in host bacteria (pBAD/gIIIA, L-arabinose induction, OD600); format: cell-based; conditions: E. coli TOP10, OD600 before and 4 hours after L-arabinose induction
E. coli DH5α = assay: microbroth dilution method, peptide and antibiotic combination; format: cell-based
Method: To determine whether or not antimicrobial peptides as described herein act in a synergistic manner with antibiotic compounds, a microbroth dilution method was performed against E. coli DH5α performed according to the guidelines of the National Committee for Clinical Laboratory Standards.

[1] = antibiotic alone (—), E. coli DH5α
[2] = in combination with SEQ ID NO: 7, E. coli DH5α
[3] = in combination with SEQ ID NO: 8, E. coli DH5α

Molecule | antimicrobial activity: inhibiting bacterial growth and/or killing bacteria on expression (in words) (E. coli TOP10) | also measured
H6: peptide by mutagenesis based on a consensus sequence for antimicrobial C-terminal fragments of cathelicidin proteins (MVIGDCLRRVRGSLENTVRDLNQGLGILRLRW; Antimicrobial peptide H6) | having antimicrobial activity | 
E3: peptide by mutagenesis based on a consensus sequence for antimicrobial C-terminal fragments of cathelicidin proteins (MVLGGCLRKGGGRLVGMFGRFRATLKNLLDMLGRRIEG; Antimicrobial peptide E3) | having antimicrobial activity | 
A5: antimicrobial peptide produced by mutagenesis based on SEQ ID NO: 7 and/or 8 (MVKRGFWKKLKRKAKKFRNSIRKTLKNFNIIIPVPLPG; Antimicrobial peptide A5) | having antimicrobial activity | 
28: antimicrobial peptide produced by mutagenesis based on SEQ ID NO: 7 and/or 8 (chain 1 MVLGGFSRCRWLEEKLRDFMKNLVVRIAG; chain 2 MVKRGLGEKLRRRPKKFGIVLGIH; Antimicrobial peptide F7; Antimicrobial peptide 28) [compound 28] | having antimicrobial activity | 
G9: peptide by mutagenesis based on a consensus sequence for antimicrobial C-terminal fragments of cathelicidin proteins (MVLGGFLRNVRWEIWKKGLSLFCQISYFVVRSSSRSAAGTIWEFEAF; Antimicrobial peptide G9) | having antimicrobial activity | 
F7: peptide by mutagenesis based on a consensus sequence for antimicrobial C-terminal fragments of cathelicidin proteins (MVLGGFSRCRWLEEKLRDFMKNLVVRIAG; Antimicrobial peptide F7) | having antimicrobial activity | 
F6: peptide by mutagenesis based on a consensus sequence for antimicrobial C-terminal fragments of cathelicidin proteins (MVLRGFLKRFGGKILRNRGRDGATLKDFLKMIATRIPH; Antimicrobial peptide F6) | having antimicrobial activity | 
10: antimicrobial peptide produced by mutagenesis based on SEQ ID NO: 7 and/or 8 (MVKRGFGKRLRKRPKKFRNSIKKRLKNFNVVFPVPRPG; antimicrobial peptide A12) [compound 10] | having antimicrobial activity | 
B1: peptide by mutagenesis based on a consensus sequence for antimicrobial C-terminal fragments of cathelicidin proteins (MVLGDLLRRVGGKFEEFFGKIRETIRTIRICSHLLLRGSSRSAAGTIWEFEAF; Antimicrobial peptide B1) | having antimicrobial activity | 
20: antimicrobial peptide produced by mutagenesis based on SEQ ID NO: 7 and/or 8 (MVKRGFGESLRRRVTKLRDDIKKH; Antimicrobial peptide 20) [compound 20] | having antimicrobial activity | 
F4: peptide by mutagenesis based on a consensus sequence for antimicrobial C-terminal fragments of cathelicidin proteins (MVLGGRSGKVRERFRRIFERYEAKIRTFMEILAAPSQD; Antimicrobial peptide F4) | having antimicrobial activity | 
A11: antimicrobial peptide produced by mutagenesis based on SEQ ID NO: 7 and/or 8 (MVKRGFGKKLRKRATKFRNSIRKRLKNFNIIFPVPRQG; Antimicrobial peptide A11) | having antimicrobial activity | 
O=C(N[C@H](CO)[C@H](O)c1ccc([N+](=O)[O-])cc1)C(Cl)Cl [Chloramphenicol] |  | MIC of antibiotic (E. coli DH5α; [1]): 4 µg/mL; MIC of antibiotic (E. coli DH5α; [2]): 1 µg/mL; MIC of antibiotic (E. coli DH5α; [3]): 2 µg/mL
A12: antimicrobial peptide produced by mutagenesis based on SEQ ID NO: 7 and/or 8 (MVKRGFGKRLRKRPKKFRNSIKKRLKNFNVVFPVPRPG; antimicrobial peptide A12) | having antimicrobial activity | 
13: antimicrobial peptide produced by mutagenesis based on SEQ ID NO: 7 and/or 8 (MVKRGFWKSLKRKLKKFGMILGID; Antimicrobial peptide 13) [compound 13] | having antimicrobial activity | 
5: antimicrobial peptide produced by mutagenesis based on SEQ ID NO: 7 and/or 8 (chain 1 SSRSAAGTIWEFEAF; chain 2 MVKRGLGKNLKRRATKIGNGIKNTLRNFNVVFPIPRPG; Consensus sequence of antimicrobial peptide; Antimicrobial peptide 5) [compound 5] | having antimicrobial activity | 
G10: peptide by mutagenesis based on a consensus sequence for antimicrobial C-terminal fragments of cathelicidin proteins (MVIRGLLKRGKGRILGLLGRNGKRLRAIMDMFRRRSQQ; Antimicrobial peptide G10) | having antimicrobial activity | 
A6: antimicrobial peptide produced by mutagenesis based on SEQ ID NO: 7 and/or 8 (MVKRGLGKKLKKKPKKFRNSIKKRLKNFNIEIPIPRQG; Antimicrobial peptide A6) | having antimicrobial activity | 
CC1(C)S[C@@H]2[C@H](NC(=O)[C@H](N)c3ccccc3)C(=O)N2[C@H]1C(=O)O [Ampicillin] |  | MIC of antibiotic (E. coli DH5α; [1]): 2 µg/mL; MIC of antibiotic (E. coli DH5α; [2]): 2 µg/mL; MIC of antibiotic (E. coli DH5α; [3]): 4 µg/mL
CN(C)[C@@H]1C(O)=C(C(N)=O)C(=O)[C@@]2(O)C(O)=C3C(=O)c4c(O)cccc4[C@@](C)(O)[C@H]3C[C@@H]12 [Tetracycline] |  | MIC of antibiotic (E. coli DH5α; [1]): 2 µg/mL; MIC of antibiotic (E. coli DH5α; [2]): 0.25 µg/mL; MIC of antibiotic (E. coli DH5α; [3]): 0.5 µg/mL
F12: peptide by mutagenesis based on a consensus sequence for antimicrobial C-terminal fragments of cathelicidin proteins (MVIGDRFKKFRERLVELRGRNGARLRPLMNIMGGRSAG; Antimicrobial peptide F12) | having antimicrobial activity | 
A4: antimicrobial peptide produced by mutagenesis based on SEQ ID NO: 7 and/or 8 (MVKRGFGKNLRRRPTKFRNSIRNRLKNFNIEFPVPRQG; Antimicrobial peptide A4) | having antimicrobial activity | 
A10: antimicrobial peptide produced by mutagenesis based on SEQ ID NO: 7 and/or 8 (MVKRGFGKKLKKKAKKFRNSIRKRLKNFNVKIPVPLPG; Antimicrobial peptide A10) | having antimicrobial activity | 
B1 | having antimicrobial activity | 
B2 | having antimicrobial activity | 
